Key:
[1] = molecular target: Macrophage colony-stimulating factor 1 receptor (Homo sapiens, UniProt P07333)
[2] = Growth inhibition of MCSF expressing mouse M-NSF60 cells
[3] = tested on: NSO; test: Growth inhibition of MCSF-independent mouse NSO cells
[4] = tested on: Rattus norvegicus; test: Antiinflammatory activity against carrageenan-induced paw edema in rat assessed as paw size at 40 mg/kg, iv relative to control; settings: read-out: Inhibition
[5] = Plasma clearance in rat; assay type: ADME, organism-based
[6] = Plasma clearance in rat at 3 mg/kg, iv; assay type: ADME, organism-based; design: dose 3 mg/kg, route intravenous

Macrophage colony-stimulating factor 1 receptor, sequence (P07333 whole entry): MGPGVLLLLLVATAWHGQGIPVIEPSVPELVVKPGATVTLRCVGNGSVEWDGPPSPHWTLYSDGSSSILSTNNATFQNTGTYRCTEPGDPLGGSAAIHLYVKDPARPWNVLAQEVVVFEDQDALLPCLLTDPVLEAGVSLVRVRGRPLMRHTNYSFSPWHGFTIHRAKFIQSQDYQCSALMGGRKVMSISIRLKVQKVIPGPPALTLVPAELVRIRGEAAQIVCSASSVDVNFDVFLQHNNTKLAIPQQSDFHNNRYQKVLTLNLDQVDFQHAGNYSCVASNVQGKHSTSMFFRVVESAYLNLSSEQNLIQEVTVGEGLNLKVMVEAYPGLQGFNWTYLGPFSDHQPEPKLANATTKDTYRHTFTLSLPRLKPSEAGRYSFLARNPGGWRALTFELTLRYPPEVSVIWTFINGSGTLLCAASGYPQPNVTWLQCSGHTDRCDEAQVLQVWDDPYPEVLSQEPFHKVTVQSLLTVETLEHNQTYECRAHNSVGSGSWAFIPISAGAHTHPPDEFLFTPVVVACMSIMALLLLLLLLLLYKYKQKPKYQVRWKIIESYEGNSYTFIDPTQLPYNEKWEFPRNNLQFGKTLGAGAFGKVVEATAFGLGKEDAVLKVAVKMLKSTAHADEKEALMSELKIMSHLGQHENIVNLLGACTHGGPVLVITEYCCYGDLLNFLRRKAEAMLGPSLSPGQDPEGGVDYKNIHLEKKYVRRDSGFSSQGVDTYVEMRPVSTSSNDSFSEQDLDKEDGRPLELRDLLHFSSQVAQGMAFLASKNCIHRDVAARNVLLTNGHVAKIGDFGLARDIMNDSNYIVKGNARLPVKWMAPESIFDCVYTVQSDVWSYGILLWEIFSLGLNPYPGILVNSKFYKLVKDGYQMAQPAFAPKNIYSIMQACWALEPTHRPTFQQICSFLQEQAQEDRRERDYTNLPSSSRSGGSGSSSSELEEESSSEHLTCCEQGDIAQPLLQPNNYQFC

| IC50 [1] [nM] | clearance [5] [mL/min/kg] | SMILES | IC50 [2] [nM] | IC50 [3] [nM] | inhibition in vivo at 40 mg/kg [4] [%] | clearance [6] [mL/min/kg] |
| --- | --- | --- | --- | --- | --- | --- |
| 40 | – | COc1ccc(Nc2c(C(N)=O)cnc3cc(-c4ccncc4)ccc23)cc1F | 320 | 32000 | – | – |
| 160 | – | Cc1cc(Nc2c(C(N)=O)cnc3cc(-c4ccncc4)ccc23)ccc1Cl | 2000 | 32000 | – | – |
| 40 | – | CN(C)c1ccc(-c2ccc3c(Nc4ccccc4)c(C(N)=O)cnc3c2)cc1 | 6300 | 32000 | – | – |
| 32 | – | COc1ccc(Nc2c(C(N)=O)cnc3cc(-c4ccncc4)ccc23)cc1Cl | 200 | > 50000 | – | – |
| 25 | – | CS(=O)(=O)Cc1cccc(-c2ccc3c(Nc4ccccc4)c(C(N)=O)cnc3c2)c1 | 5000 | > 20000 | – | – |
| 50 | – | N#Cc1ccc(-c2ccc3c(Nc4ccccc4)c(C(N)=O)cnc3c2)cc1 | 4000 | 32000 | – | – |
| – | 39 | NC(=O)c1cnc2cc(-c3ccncc3)ccc2c1Nc1ccccc1 | 800 | 12000 | 95 | – |
| 63 | – | COc1ccc(Nc2c(C(N)=O)cnc3cc(-c4ccncc4)ccc23)cc1 | 800 | 16000 | – | – |
| 320 | – | N#Cc1cccc(-c2ccc3c(Nc4ccccc4)c(C(N)=O)cnc3c2)c1 | 8000 | 10000 | – | – |
| 130 | – | CSc1ccc(Nc2c(C(N)=O)cnc3cc(-c4ccncc4)ccc23)cc1 | 10000 | > 50000 | – | – |
| – | – | CCOc1ccc(Nc2c(C(N)=O)cnc3cc(-c4ccncc4)ccc23)cc1F | 4000 | > 16000 | – | – |
| – | – | CC(C)Oc1ccc(Nc2c(C(N)=O)cnc3cc(-c4ccncc4)ccc23)cc1F | 8000 | 13000 | – | – |
| 63 | – | CN(C)c1ccc(Nc2c(C(N)=O)cnc3cc(-c4ccncc4)ccc23)cc1 | 6300 | 10000 | – | – |
| 630 | – | CC(C)Oc1ccc(Nc2c(C(N)=O)cnc3cc(-c4ccncc4)ccc23)cc1 | 40000 | > 50000 | – | – |
| – | – | NC(=O)c1cnc2cc(-c3ccccc3)ccc2c1Nc1ccccc1 | 10000 | 32000 | – | – |
| 32 | – | NC(=O)c1cnc2cc(-c3ccncc3)ccc2c1Nc1ccc(F)c(F)c1 | 2500 | > 32000 | – | – |
| 50 | – | Cc1cc(Nc2c(C(N)=O)cnc3cc(-c4ccncc4)ccc23)ccc1F | 1000 | > 50000 | – | – |
| 50 | – | CS(=O)(=O)Cc1ccc(-c2ccc3c(Nc4ccccc4)c(C(N)=O)cnc3c2)cc1 | 1600 | 8000 | – | – |
| 200 | – | CCS(=O)(=O)c1ccc(-c2ccc3c(Nc4ccccc4)c(C(N)=O)cnc3c2)cc1 | 800 | 8000 | – | – |
| 16 | – | CS(=O)(=O)c1ccc(-c2ccc3c(Nc4ccccc4)c(C(N)=O)cnc3c2)cc1 | 100 | 20000 | – | – |

| IC50 [1] [nM] | clearance [5] [mL/min/kg] | SMILES | IC50 [2] [nM] | IC50 [3] [nM] | inhibition in vivo at 40 mg/kg [4] [%] | clearance [6] [mL/min/kg] |
| --- | --- | --- | --- | --- | --- | --- |
| 63 | – | Cc1ccc(Nc2c(C(N)=O)cnc3cc(-c4ccc(S(C)(=O)=O)cc4)ccc23)cc1F | 3200 | > 20000 | – | – |
| 160 | – | CS(=O)(=O)c1ccc(-c2ccc3c(Nc4ccc(F)cc4)c(C(N)=O)cnc3c2)cc1 | 400 | 10000 | – | 4.5 |
| 100 | – | COc1ccc(Nc2c(C(N)=O)cnc3cc(-c4ccc(S(C)(=O)=O)cc4)ccc23)cc1F | 1000 | 20000 | – | – |
| – | – | Cc1ccc(-c2ccc3c(Nc4ccccc4)c(C(N)=O)cnc3c2)cc1 | 32000 | 25000 | – | – |
| 25 | – | COc1ccc(-c2ccc3c(Nc4ccccc4)c(C(N)=O)cnc3c2)cc1 | 6300 | 8000 | – | – |
| 32 | – | NC(=O)c1cnc2cc(-c3ccc(F)cc3)ccc2c1Nc1ccccc1 | 25000 | 25000 | – | – |
| 80 | – | NC(=O)c1cnc2cc(-c3ccc(S(N)(=O)=O)cc3)ccc2c1Nc1ccccc1 | 3200 | 13000 | – | – |
| 100 | – | NC(=O)c1cnc2cc(-c3ccncc3)ccc2c1Nc1ccc(F)cc1 | 800 | > 40000 | – | – |
| 80 | – | Cc1ccc(Nc2c(C(N)=O)cnc3cc(-c4ccncc4)ccc23)cc1C | 100 | > 50000 | – | – |
| 80 | – | Cc1ccc(Nc2c(C(N)=O)cnc3cc(-c4ccncc4)ccc23)cc1F | 5000 | > 20000 | – | – |
| 16 | – | NC(=O)c1cnc2cc(-c3ccc(Br)cc3)ccc2c1Nc1ccccc1 | 50000 | 50000 | – | – |
| – | – | NC(=O)c1cnc2cc(-c3ccc(N)cc3)ccc2c1Nc1ccccc1 | 1600 | 10000 | – | – |
| 200 | – | CS(=O)(=O)c1ccc(-c2ccc3c(Nc4ccc(F)c(F)c4)c(C(N)=O)cnc3c2)cc1 | 2000 | > 20000 | – | – |
| – | – | COc1ccc(Nc2c(C(N)=O)cnc3cc(-c4ccc(S(C)(=O)=O)cc4)ccc23)cc1Cl | 100 | 13000 | – | – |
| 40 | – | Cc1ccc(Nc2c(C(N)=O)cnc3cc(-c4ccncc4)ccc23)cc1Cl | 160 | > 32000 | – | – |
| 32 | – | NC(=O)c1cnc2cc(-c3ccncc3)ccc2c1Nc1ccc(OC(F)(F)F)c(Cl)c1 | > 20000 | > 32000 | – | – |
| 3200 | – | NC(=O)c1cnc2cc(-c3ccncc3)ccc2c1Nc1ccon1 | > 50000 | 40000 | – | – |
| 130 | – | NC(=O)c1cnc2cc(-c3ccc(C(F)(F)F)cc3)ccc2c1Nc1ccccc1 | 16000 | 20000 | – | – |
| 63 | – | CS(=O)(=O)Nc1ccc(-c2ccc3c(Nc4ccccc4)c(C(N)=O)cnc3c2)cc1 | 2000 | 10000 | – | – |
| 80 | – | CC(=O)Nc1ccc(-c2ccc3c(Nc4ccccc4)c(C(N)=O)cnc3c2)cc1 | 1300 | 4000 | – | – |

| SMILES | IC50 [1] [nM] | clearance [5] [mL/min/kg] | IC50 [2] [nM] | IC50 [3] [nM] | inhibition in vivo at 40 mg/kg [4] [%] | clearance [6] [mL/min/kg] |
| --- | --- | --- | --- | --- | --- | --- |
| NC(=O)c1cnc2cc(-c3ccc(C(=O)C4CC4)cc3)ccc2c1Nc1ccccc1 | 100 | – | 4000 | 10000 | – | – |
| NC(=O)c1cnc2cc(-c3ccc(C(=O)C4CCCC4)cc3)ccc2c1Nc1ccccc1 | 32 | – | > 20000 | > 20000 | – | – |
| NC(=O)c1cnc2cc(-c3ccncc3)ccc2c1Nc1cccc2[nH]ncc12 | 160 | – | 1300 | > 32000 | – | – |
| NC(=O)c1cnc2cc(-c3ccc(C(=O)N4CCCCC4)cc3)ccc2c1Nc1ccccc1 | 16 | – | 400 | 8000 | – | – |
| NC(=O)c1cnc2cc(-c3ccc(C(=O)N4CCOCC4)cc3)ccc2c1Nc1ccccc1 | 80 | – | 200 | 8000 | – | – |
| Cc1ccc(Nc2c(C(N)=O)cnc3cc(-c4ccc(S(C)(=O)=O)cc4)ccc23)cc1C | 8 | – | 100 | 10000 | – | 51 |
| NC(=O)c1cnc2cc(-c3ccncc3)ccc2c1Nc1n[nH]c2ccccc12 | 320 | – | 800 | > 50000 | – | – |
